According to patent US9505710B2 (priority 2015, dated 2016):

Target: BoNT/A LC1-429 (Clostridium botulinum, UniProt P0DPI1)
Test: biochemical

Chain of BoNT/A LC1-429 (P0DPI1 1-429, added parts left off): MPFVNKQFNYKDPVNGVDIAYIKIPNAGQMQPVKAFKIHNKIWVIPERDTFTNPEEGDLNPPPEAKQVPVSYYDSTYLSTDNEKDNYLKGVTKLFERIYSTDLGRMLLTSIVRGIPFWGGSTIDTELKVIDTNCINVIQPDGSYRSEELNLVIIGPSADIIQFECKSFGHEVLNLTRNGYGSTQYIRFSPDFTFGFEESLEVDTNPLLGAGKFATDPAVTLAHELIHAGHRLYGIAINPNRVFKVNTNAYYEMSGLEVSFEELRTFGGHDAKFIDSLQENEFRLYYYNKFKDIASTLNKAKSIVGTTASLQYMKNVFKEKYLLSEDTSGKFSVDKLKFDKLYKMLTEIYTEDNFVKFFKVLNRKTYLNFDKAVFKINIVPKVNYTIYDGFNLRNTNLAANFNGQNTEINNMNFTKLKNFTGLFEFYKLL

CCO[C@H](CC(=O)NO)[C@H](Cc1ccc(-c2cccnc2)cc1)c1ccc(F)cc1 [Example 1-13, (3R,4R)-3-ethoxy-4-(4-fluorophenyl)-N-hydroxy-5-(4-(pyridin-3-yl)phenyl)pentanamide]
Ki: 0.147 µM

CCO[C@H](CC(=O)NO)[C@H](Cc1ccc(C(=O)O)cc1)c1ccc(F)cc1 [Example 1-10, 4-((2R,3R)-3-ethoxy-2-(4-fluorophenyl)-5-(hydroxyamino)-5-oxopentyl)benzoic acid]
Ki: 23.3 µM

CCO[C@H](CC(=O)NO)[C@H](Cc1cccc(-c2ccncc2)c1)c1ccc(F)cc1 [Example 1-11, (3R,4R)-3-ethoxy-4-(4-fluorophenyl)-N-hydroxy-5-(3-(pyridin-4-yl)phenyl)pentanamide]
Ki: 1.06 µM

CCO[C@H](CC(=O)NO)[C@H](Cc1ccc(C(=O)N(C)C)cc1)c1ccc(F)cc1 [Example 1-8, 4-((2R,3R)-3-ethoxy-2-(4-fluorophenyl)-5-(hydroxyamino)-5-oxopentyl)-N,N-dimethylbenzamide]
Ki: 4.35 µM
